Reference: patent publication US20220267720A1, “FIBROSIS-SPECIFIC CELL CULTURE SUBSTRATE AND METHODS OF USE” (Xylyx Bio, Inc., priority 2019, published 2022)

What was measured:
[1] = Diffusivity of fluorescent trackers through liver ECM hydrogels; format: physicochemical
Description: Physiochemical characterizations of fibrotic and normal human liver matrix hydrogels.

[2] = tested on: human hepatic stellate cells (HSC); experiment: IC50 response of hepatic stellate cells to Erlotinib, XTT assay; format: cell-based; conditions: HSC on fibrotic or normal soluble ECM or plastic, 72 hours with drug
Experimental: Methods: Primary human hepatocytes, HepG2 cells (human hepatocarcinoma cell type commonly used to model hepatocytes), and human hepatic stellate cells (HSC) were cultured for up to 7 days on normal or fibrotic human liver matrix scaffolds, Matrigel, collagen I hydrogels, and/or tissue culture plates (plastic) with or without collagen I coating.
HSCs differentially expressed fibrosis-related genes ACTA2, COL1A1 LOXL2 and PDGFR2 in liver scaffolds versus tissue plastic and Coll coated plates (FIG. 11B). […] Although morphologic similarities were observed between HSC cultured in fibrotic and normal liver ECM scaffolds, morphology differed from HSC cultured on artificial substrates (FIG. 11C). […] To test whether HSC cultured on different ECM respond differently to drug treatment then cells grown in standard 2D we measured the IC50 response of HSC to Erlotinib, an inhibitor of the epidermal growth factor receptor (EGFR) tyrosine, used for the treatment for several cancers and currently is in clinical trials for the treatment of hepatocarcinomatous originating from cirrhotic livers (FIG. 11F). 5000 cells were plated on 96 wells on fibrotic or normal ECM soluble ECM and on plastic. 24 hours later Erlotinib or DMSO vehicle in different concentrations was added. Cells were grown with drugs for 72 hours (with media+drug replenished every day). Cell number were assed using a standard XTT assay.

pulmonary fibroblasts [3] = experiment: Gene expression of fibroblasts in IPF matrix scaffolds treated with antifibrotic agent; format: cell-based, human
pulmonary fibroblasts [4] = experiment: Growth curves of pulmonary fibroblasts in IPF and normal lung matrix scaffolds exposed to antifibrotic agent; format: cell-based, human
Normal HSC [5] = experiment: Ki67 immunofluorescence imaging of HSC in fibrotic human liver ECM hydrogel; format: cell-based; conditions: for Ki67 positive cells after Pirfenidone treatment: 2.7 mM Pirfenidone; for proliferating Ki67+ cells (change): fibrotic liver ECM hydrogel, TGFβ1 25 nM, Pirfenidone 2.7 mM, readout day 5
Experimental: (§1) Normal HSC were cultured in fibrotic human liver ECM hydrogel for up to 5 days. Cells were cultured in fibrotic liver ECM hydrogel for 2 days, then TGFβ1 (25 nM) was added to induce activation, along with 2.7 mM Pirfenidone (FDA-approved gold standard anti-fibrotic drug) or DMSO vehicle (1%) control for 3 days prior to assay readouts on day 5. Cell-based proliferation assay, immunofluorescence imaging in multi-well plates, and Elisa for ProCollagen1 were performed. […] Conclusions: We confirmed compatibility of normal & fibrotic liver ECM hydrogel with common analytical techniques & assays used in early-stage drug development including discovery, screening, target validation.

Normal HSC [6] = experiment: Cell-based proliferation assay of HSC in fibrotic human liver ECM hydrogel; conditions: TGFβ1 25 nM, Pirfenidone 2.7 mM, 3 days, readout day 5
Experimental: as §1

[7] = tested on: Normal human pulmonary fibroblasts; experiment: Proliferation and myofibroblast differentiation assay in fibrotic human lung ECM hydrogel; format: cell-based
Experimental: Normal human pulmonary fibroblasts were cultured in fibrotic human lung ECM hydrogel for up to 5 days and subjected to live cell imaging with CellTracker™ red, immunofluorescence imaging in multi-well plates, and a common cell-based proliferation assay. Cells were cultured in fibrotic lung ECM hydrogel for 2 days, then TGFβ1 (5 nM) was added to induce myofibroblast differentiation, along with 2.7 mM Pirfenidone (FDA-approved gold standard anti-fibrotic drug) or DMSO vehicle ([…]) control for […] prior to assay readouts on day 5. […] After 48 hours, 1standard immunofluorescence staining was performed in situ in 96-well plates. Fibroblasts expressed vimentin, αSMA, and proliferation marker Ki67 (white arrows, FIG. 21B).

[8] = fibroblasts in IPF matrix scaffolds
[9] = fibrotic lung ECM scaffolds compared to tissue culture plastic

In the case of `CC1=CC(C)(C)N(C)c2cc3[o+]c4cc5c(cc4c(-c4cc(NC(=O)c6ccc(CCl)cc6)ccc4C(=O)[O-])c3cc21)C(C)=CC(C)(C)N5C.CC1=CC(C)(C)N(C)c2cc3[o+]c4cc5c(cc4c(-c4ccc(NC(=O)c6ccc(CCl)cc6)cc4C(=O)[O-])c3cc21)C(C)=CC(C)(C)N5C` [CellTracker Red CMTPX], the diffusion rate [1] is reported as > 2 mm h^−1.

In the case of `C#Cc1cccc(Nc2ncnc3cc(OCCOC)c(OCCOC)cc23)c1` [Erlotinib], the “IC50 response of HSC to Erlotinib” value [2] is reported as “lower for cells on normal ECM compared to fibrotic ECM and higher for plastic cultured cells”.

With `Cc1ccc(-c2ccc3c(ccc4sc5c(c43)NC[C@@H](C)NC5=O)n2)cn1` [PF3644022] the “expression of ACTA2” value (pulmonary fibroblasts [3]; [8]) was “consistently reduced”, the “expression of COL1A1” value (pulmonary fibroblasts [3]; [8]) was “consistently reduced” and the “expression of YAP1” value (pulmonary fibroblasts [3]; [8]) was “No significant differences”. The “expression of genes associated with ECM production” value (pulmonary fibroblasts [3]; [9]) was “downregulation”, the “growth of fibroblasts, sensitivity and drug response” value (pulmonary fibroblasts [4]; fibroblasts in IPF matrix scaffolds versus normal lung matrix scaffolds) was “greater sensitivity and drug response” and the “growth of fibroblasts versus untreated cells” value (pulmonary fibroblasts [4]; fibroblasts in normal lung matrix scaffolds, after 6 days) was “not significantly different from untreated cells”. For the same compound, the “sensitivity and drug response” value (pulmonary fibroblasts [4]; [9]) was “greater sensitivity and drug response”.

In the case of `Cc1ccc(=O)n(-c2ccccc2)c1` [Pirfenidone], the “Ki67 positive cells after Pirfenidone treatment” value (Normal HSC [5]; HSC on liver ECM) is reported as ~20%, the “Ki67 positive cells after Pirfenidone treatment” value (Normal HSC [5]; HSC on plastic) is reported as “over 50%” and the “proliferating Ki67+ cells (change)” value (Normal HSC [5]) is reported as “significantly reduced”. The cell proliferation (Normal HSC [6]) was “slowed cell proliferation” and the “proliferation of lung fibroblasts” value ([7]; 2.7 mM Pirfenidone with TGFβ1 5 nM, readout day 5) was “decrease proliferation”.

With “TGFβ: transforming growth factor beta, added to induce activation / myofibroblast differentiation” the “proliferating Ki67+ cells (change)” value (Normal HSC [5]) was “significantly changed”, the cell proliferation (Normal HSC [6]) was “accelerated cell proliferation” and the αSMA ([7]; TGFβ1 5 nM) was “increased”.
